Source: patent US11013690B2, “Esterification/saponification-based method for liposomal encapsulation of hydrophilic glucuronides” (priority 2016, dated 2021)

Columns and labels:
human beta-glucuronidase = molecular target: T1, human beta-glucuronidase (Homo sapiens, UniProt P08236); assay: Regeneration of parental drug by beta-glucuronidase at pH 4.5; type: biochemical; details: pH 4.5 to mimic lysosomes
T1 sequence (P08236 23-651): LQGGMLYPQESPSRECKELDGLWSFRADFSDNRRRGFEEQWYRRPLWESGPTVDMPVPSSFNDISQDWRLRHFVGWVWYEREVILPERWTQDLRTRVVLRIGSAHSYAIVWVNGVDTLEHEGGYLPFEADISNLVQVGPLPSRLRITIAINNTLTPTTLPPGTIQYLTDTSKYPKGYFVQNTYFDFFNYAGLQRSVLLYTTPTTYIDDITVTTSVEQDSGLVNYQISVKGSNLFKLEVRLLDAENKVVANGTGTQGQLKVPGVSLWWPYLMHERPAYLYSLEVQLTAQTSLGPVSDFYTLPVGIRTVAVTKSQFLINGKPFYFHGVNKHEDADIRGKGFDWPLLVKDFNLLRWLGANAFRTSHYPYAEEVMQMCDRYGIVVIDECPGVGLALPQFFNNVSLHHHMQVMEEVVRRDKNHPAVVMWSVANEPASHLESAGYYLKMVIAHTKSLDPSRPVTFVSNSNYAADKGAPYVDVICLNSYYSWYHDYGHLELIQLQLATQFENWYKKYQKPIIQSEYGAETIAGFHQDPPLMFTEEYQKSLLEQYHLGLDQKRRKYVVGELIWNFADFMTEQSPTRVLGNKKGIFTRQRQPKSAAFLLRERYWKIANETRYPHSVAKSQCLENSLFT
Procedure: FIG. 28 illustrates the reversibility of the conjugation of the glucuronide residue to a parental compound. Here, 9AC was analyzed by HPLC before (1.) and after glucuronide conjugation (2.). […] 9AC-G incubated with human enzyme beta-glucuronidase at pH 4.5 to mimic the lysosomal conditions, could regenerate the original parental drug 9AC (5.). (RFU=relative fluorescent units)
In real conditions, it is extrapolated that liposomal glucuronides can be uptake by cells and that the liposomes can release the glucuronide inside lysosomes after degradation as illustrated in FIG. 29. Illustrations of compound regeneration are provided using 2 examples: 9AC-G (linked by self-immolative chemical linker that is removed upon enzyme hydrolysis, FIG. 30) and fluorescein (directly linked to glucuronide residues, FIG. 31). Effective amounts of 9AC were found in the medium of HCC36 and MDA-MB468 human cancer cells after addition of 9AC-G liposomes. On the other hand, when no cells were present, no 9AC was found, meaning that the regeneration of 9AC was dependent on the cells (FIG. 32). […] To further illustrate the parental compound regeneration ability, we incubated HCC36 cells engineered with LDL-R/anti PEG receptors with liposomal fluorescein-di-G (non-fluorescent). At early time, the liposomes (red) were taken up by the cells and started to colocalize with the lysosomes (magenta). […]

[1] = Pharmacokinetics of free vs liposomal 9AC-G in mice; type: in vivo, NOD/SCID mice; details: 25 mg/kg intravenously, 9AC-G in serum by HPLC
Procedure: FIG. 39 illustrates the pharmacokinetics in mice of free 9AC-G compared to liposomal 9AC-G. A dose of 25 mg/kg of either free 9AC-G or liposomal 9AC-G was injected intravenously by the tail of NOD/SCID mice. Blood samples were collected at different times and the concentration of 9AC-G was determined by HPLC. n=3, Error bars, SD.
This example relates to a test of whether the liposomal formulation of 9AC-G could display prolonged pharmacokinetics when compared to free 9AC-G. Free and liposomal 9AC-G were delivered intravenously at 25 mg/kg to 12 to 16 weeks old female mice. The total serum concentrations of 9AC-G were monitored by collecting blood samples in which the plasma was isolated from the red blood cells by centrifugation. The serum proteins were precipitated in acetonitrile:methanol:0.2 M trichloroacetic acid (2:2:1, vol:vol mixture). Samples were centrifuged to eliminate precipitated proteins and diluted in buffer containing 1% triton X-100 to lyse the liposomes and analyze 9AC-G quantities by HPLC.

MDA-MB-468 tumors = assay: In-vivo anti-tumor activity, MDA-MB-468 subcutaneous tumors; design: species or system NOD/SCID mice; details: i.v. weekly x4, free 9AC 2 mg/kg, free 9AC-G 10 mg/kg; for mice survival: 9AC-G liposomes 10 mg/kg
From the text: FIG. 41 illustrates the in-vivo anti-tumor activity of liposomal 9AC-G. NOD/SCID mice were inoculated subcutaneously with 10^7 MDA-MB-468 cells. When tumors reached 75 to 100 mm^3 the treatment started at one injection per week for a total of 4 treatments. Figure represents the tumor volume evolution. n=7, Error bars: SD. Differences in tumor sizes between groups were examined for statistical significance using one-way ANOVA followed by Dunnettt's multiple comparisons. Stars indicate significance; n.s=non-significant and p<0.0001 (***)
FIG. 42 illustrates the mice survival after treatment with 9AC, 9AC-G or 9AC-G liposomes. n=7, Error bars, SD
FIG. 44 illustrates the tumor growth of MDA-MB-468 human breast cancer cells (10^7 cells in 100 μL PBS) injected subcutaneously in twelve to sixteen-week old female NOD/SCID immunodeficient mice. When tumors reached sizes from 75 mm^3 to 100 mm^3, groups of 7 mice were treated at weekly intervals for four times with intravenous injections of 9AC-G (10 mg/kg) or doxorubicin liposomes (Doxisome®, 1 mg/kg). n=7, Error bars, SD. Differences in tumor sizes between groups were examined for statistical significance using one-way ANOVA followed by Dunnettt's multiple comparisons. Stars indicate significance; p<0.001 (**) and p<0.0001 (***)
Next, in an in-vive model of breast cancer in NOD/SCID mice, 10^7 MDA-MD468 cells were inoculated subcutaneously per mouse. The treatment was started when the tumors reached an average size of 75 to 100 mm^3. Mice were intravenously injected with 9AC-G liposomes at 10 mg/kg, free parental 9AC (2 mg/kg), or free 9AC-G (10 mg/kg). […] Appreciably, low toxicity was observed and the tumors were undetectable when treated with 9AC-G liposomes after 4 treatments for 6 over 7 mice, as shown in FIG. 41. […] We observed that the amount of activated parental drug 9AC was over 30 folds higher in the tumor than in the blood 24 hours after injection of 9AC-G liposomes (FIG. 43). This phenomenon is likely due to the enhanced permeability and retention effect (EPR) by which nanoparticles accumulate and are retained in tumor through leaky blood tumor vasculature.

[2] = system: HCC36 human hepatocellular carcinoma cells; assay: Effect of human serum albumin on toxicity to HCC36 cells; type: cell-based; details: HCC36, human serum albumin 40 mg/mL, 24 hours, 3H-thymidine incorporation
Procedure: FIG. 35 illustrates the neutralizing effect of human serum albumin on free 9AC-G. Human hepatocellular carcinoma cells (HCC36) were exposed to free 9AC-G with or without human serum albumin (40 mg/mL) for 24 hours. Cell proliferation was observed by ^3H-thymidine incorporation assay. Human serum albumin inhibits the potency of free 9AC-G that is not loaded into liposomes. n=3, Error bars, SD.
FIG. 36 illustrates the inability of human serum albumin to neutralize 9AC-G after liposomal loading. Human hepatocellular carcinoma cells (HCC36) were exposed to liposomal 9AC-G with or without human serum albumin (40 mg/mL) for 24 hours. Cell proliferation was observed by ^3H-thymidine incorporation assay.
Anticancer activity of liposomes loaded with glucuronide-mE to encapsulate glucuronide can be assessed in-vitro or in-vivo. In an in-vitro assay, cancer cell lines can be seeded in wells or plates and various concentrations of liposomal glucuronide can be applied to the cells for a period of time, such as 24 hours, and cell killing can be assayed. Tritiated thymidine can be used to assay cell proliferation. […] Liposomal doxorubicin and liposomal 9AC-G toxicities were assessed with 3 human colon cancer cells (LS174T, HT29, and HCT16), 3 human lung cancer cells (CL1-5, NCI-H2170, and SK-MES-1) and 1 human breast cancer cells (MDA-MB-468). […]

[3] = pH stability of 9AC-GmE (HPLC); type: physicochemical
Procedure: FIG. 6 illustrates the stability of 9-aminocamptothecin glucuronide methylester (9AC-GmE) at acidic pH. 9AC-GmE stability was monitored over time at 75° C., at pH 5. Quantification was done by HPLC at excitation and emission of 370 and 460 nm, respectively. (Abbreviations: 9AC, 9-aminocamptothecin; 9AC-G, 9-aminocamptothecin glucuronide; 9AC-GmE, methylester form of 9AC-G). n=3. Error bars, SD.
FIG. 7 illustrates the conversion of 9-aminocamptothecin glucuronide methylester (9AC-GmE) to 9-aminocamptothecin glucuronide (9AC-G) at basic pH. 9AC-GmE conversion to 9AC-G was monitored over time at 75° C., at pH 8.5. Quantification was done by HPLC at excitation and emission of 370 and 460 nm, respectively. n=3. Error bars, SD.
The behavior of 9AC-GmE was investigated at different pH and temperatures.

[4] = Octanol-to-water partitioning assay; type: physicochemical; details: 1-octanol / citric acid pH 5, room temperature
Procedure: FIG. 4 illustrates the octanol to water distribution of glucuronides and glucuronide-mE. Glucuronides and glucuronide-mE were incubated overnight in immiscible aqueous and organic phases (citric acid pH 5 and 1-octanol) under gentle shaking at room temperature. Samples from each phase were analyzed to characterize the distribution of the compounds. n=3-5
FIG. 5 illustrates the Log P of glucuronides and glucuronide-mE compounds in each phase of 1-octanol and citric acid pH 5 following the formula: log Poctanol/water=log ([solute]octanol/[solute]water). n=3-5. Error bars, SD
9-aminocamptothecin glucuronide (9AC-G), 5,6-dihydro-4H-benzo[de]quinoline-camptothecin-β-D-glucuronide (BQC-G) and 4-methylumbelliferyl-β-D-glucuronide (4MU-G) can be incubated in methanol in the presence of a strong acid (sulfuric acid) as a catalyzer (FIG. 2).
Distribution of the different compounds were measured by dilution in a 1:1 volume of octanol and 100 mM citric acid buffer at pH 5 (FIG. 4). The solutions were gently stirred for 24 hours at room temperature, spun down at 2,500×g and glucuronides or glucuronide-mE in each phase was quantified by HPLC and the partition coefficients were calculated as log Poctanol/water=log ([solute]octanol/[solute]water) ([…]).

| Compound | mice survival (MDA-MB-468 tumors) | effect on tumor growth (MDA-MB-468 tumors) | partition versus corresponding glucuronide [4] | also measured |
| --- | --- | --- | --- | --- |
| 9-aminocamptothecin glucuronide [9AC-G] | not | little effect on the tumor growth | – | conversion to parental drug by beta-glucuronidase (human beta-glucuronidase): completely converted to 9AC; initial half-life [1]: 9.3 min; terminal half-life [1]: 38.6 min; effect of human serum albumin on toxicity [2]: toxicity is suppressed |
| 9-aminocamptothecin glucuronide methylester [9AC-GmE] | – | – | increased partition into an organic phase | stability of methylester group at basic pH (saponification to 9AC-G) ([3]; basic pH (8.5), 75° C.): easily is hydrolyzed; stability at acidic pH ([3]; pH 5, 75° C.): very stable |
| COC(=O)C1OC(Oc2ccc3c(C)cc(=O)oc3c2)C(O)C(O)C1O (stereo not drawn) [4MU-GmE] | – | – | increased partition into an organic phase | – |
| CC[C@@]1(O)C(=O)OCc2c1cc1n(c2=O)Cc2cc3c(N)cccc3nc2-1 [9AC, 9-aminocamptothecin, reference compound] | not | little effect on the tumor growth | – | – |
